We go through 7 molecules from patent US20160271263A1 (Novo Nordisk A/S, priority 2010, published 2016).

As a reminder, the EC50 is the midpoint of the concentration-response curve. A lower EC50 goes with greater potency.

Numbered stars: 1 amine (or outer) side, 2 acyl side, 3 side chain; on linkers, the order of the positions; unused ones are H or OH. Side chains are listed from the residue outwards. Peptide text beside a SMILES is read from it. * marks the point of attachment. C18 diacid = O=C(O)CCCCCCCCCCCCCCCCC(=O)*; γGlu = O=C(O)[C@H](CCC(=O)[*:2])N[*:1]; AEEA = NCCOCCOCC(=O)O

The target of this assay is glucagon receptor (Homo sapiens, UniProt P47871). Description: cell-based.
Chain of glucagon receptor (P47871 26-477): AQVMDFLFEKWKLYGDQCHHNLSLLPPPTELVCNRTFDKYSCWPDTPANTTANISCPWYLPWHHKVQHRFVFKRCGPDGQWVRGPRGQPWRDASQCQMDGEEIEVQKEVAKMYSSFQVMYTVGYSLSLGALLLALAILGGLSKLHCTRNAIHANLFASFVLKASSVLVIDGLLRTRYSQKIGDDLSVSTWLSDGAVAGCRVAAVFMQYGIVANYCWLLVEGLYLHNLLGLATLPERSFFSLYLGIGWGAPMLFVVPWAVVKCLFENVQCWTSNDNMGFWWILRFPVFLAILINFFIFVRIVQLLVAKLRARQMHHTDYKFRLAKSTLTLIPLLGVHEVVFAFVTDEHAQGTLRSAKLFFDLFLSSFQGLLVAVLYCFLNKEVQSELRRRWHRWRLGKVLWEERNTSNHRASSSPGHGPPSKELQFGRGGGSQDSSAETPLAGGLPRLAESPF
In turn, `CC(C)C[C@H](NC(=O)[C@H](Cc1ccc(O)cc1)NC(=O)[C@H](CCCCN)NC(=O)[C@H](CO)NC(=O)[C@H](Cc1ccc(O)cc1)NC(=O)[C@H](CC(=O)O)NC(=O)[C@H](CO)NC(=O)[C@@H](NC(=O)[C@H](Cc1ccccc1)NC(=O)[C@@H](NC(=O)CNC(=O)[C@H](CCC(N)=O)NC(=O)[C@H](CO)NC(=O)[C@@H](N)Cc1c[nH]cn1)[C@@H](C)O)[C@@H](C)O)C(=O)N[C@@H](CC(=O)O)C(=O)N[C@@H](CO)C(=O)N[C@@H](CCCCN)C(=O)N[C@@H](CCCNC(=N)N)C(=O)N[C@@H](C)C(=O)N[C@@H](CCC(N)=O)C(=O)N[C@@H](CCC(=O)O)C(=O)N[C@@H](Cc1ccccc1)C(=O)N[C@H](C(=O)N[C@@H](CCC(N)=O)C(=O)N[C@@H](CCCCNC(=O)COCCOCCNC(=O)COCCOCCNC(=O)CC[C@H](NC(=O)CCCCCCCCCCCCCCCCC(=O)O)C(=O)O)C(=O)N[C@@H](CC(C)C)C(=O)N[C@@H](CC(C)C)C(=O)N[C@@H](CC(N)=O)C(=O)N[C@H](C(N)=O)[C@@H](C)O)C(C)C` [Example 44, N^ε25 ([2-[2-[2-[[2-[2-[2-[[(4S)-5-hydroxy-4-[(18-hydroxy-18-oxooctadecanoyl)amino]-5-oxopentanoyl]amino]ethoxy]ethoxy]acetyl]amino]ethoxy]ethoxy]acetyl]) [Lys^17, Glu^21, Lys^25 Leu^27] Glucagon peptide amide] (H-HSQGTFTSDYSKYLDSKRAQEFVQK([AEEA-AEEA-γGlu-C18 diacid])LLNT-NH2; N-terminus assumed) showed an EC50 of 0.012 nM.

As for `CC(C)C[C@H](NC(=O)[C@H](Cc1ccc(O)cc1)NC(=O)[C@H](CCCCN)NC(=O)[C@H](CO)NC(=O)[C@H](Cc1ccc(O)cc1)NC(=O)[C@H](CC(=O)O)NC(=O)[C@H](CO)NC(=O)[C@@H](NC(=O)[C@H](Cc1ccccc1)NC(=O)[C@@H](NC(=O)CNC(=O)[C@H](CCC(N)=O)NC(=O)[C@H](CO)NC(=O)[C@@H](N)Cc1c[nH]cn1)[C@@H](C)O)[C@@H](C)O)C(=O)N[C@@H](CC(=O)O)C(=O)N[C@@H](CO)C(=O)N[C@@H](CCCCN)C(=O)N[C@@H](CCCNC(=N)N)C(=O)N[C@@H](C)C(=O)N[C@@H](CCC(N)=O)C(=O)N[C@@H](CCC(=O)O)C(=O)N[C@@H](Cc1ccccc1)C(=O)N[C@H](C(=O)N[C@@H](CCC(N)=O)C(=O)N[C@@H](Cc1c[nH]c2ccccc12)C(=O)N[C@@H](CC(C)C)C(=O)N[C@@H](CCCCNC(=O)COCCOCCNC(=O)COCCOCCNC(=O)CC[C@H](NC(=O)CCCCCCCCCCCCCCCCC(=O)O)C(=O)O)C(=O)N[C@@H](CC(N)=O)C(=O)N[C@H](C(N)=O)[C@@H](C)O)C(C)C` [Example 45, N^ε27 ([2-[2-[2-[[2-[2-[2-[[(4S)-5-hydroxy-4-[(18-hydroxy-18-oxooctadecanoyl)amino]-5-oxopentanoyl]amino]ethoxy]ethoxy]acetyl]amino]ethoxy]ethoxy]acetyl]) [Lys^17, Glu^21, Lys^27] Glucagon peptide amide] (H-HSQGTFTSDYSKYLDSKRAQEFVQWLK([AEEA-AEEA-γGlu-C18 diacid])NT-NH2; N-terminus assumed), the concentration for a half-maximal effect (EC50) amounted to 0.007 nM.

`CC(C)C[C@H](NC(=O)[C@H](CC(C)C)NC(=O)[C@H](Cc1c[nH]c2ccccc12)NC(=O)[C@H](CCC(N)=O)NC(=O)[C@@H](NC(=O)[C@H](Cc1ccccc1)NC(=O)[C@H](CCC(=O)O)NC(=O)[C@H](CCC(N)=O)NC(=O)[C@H](C)NC(=O)[C@H](CCCNC(=N)N)NC(=O)[C@H](CCCCN)NC(=O)[C@H](CO)NC(=O)[C@H](CC(=O)O)NC(=O)[C@H](CC(C)C)NC(=O)[C@H](Cc1ccc(O)cc1)NC(=O)[C@H](CCCCN)NC(=O)[C@H](CO)NC(=O)[C@H](Cc1ccc(O)cc1)NC(=O)[C@H](CC(=O)O)NC(=O)[C@H](CO)NC(=O)[C@@H](NC(=O)[C@H](Cc1ccccc1)NC(=O)[C@@H](NC(=O)CNC(=O)[C@H](CCC(N)=O)NC(=O)[C@H](CO)NC(=O)[C@@H](N)Cc1c[nH]cn1)[C@@H](C)O)[C@@H](C)O)C(C)C)C(=O)N[C@@H](CC(N)=O)C(=O)N[C@@H](CCCCNC(=O)COCCOCCNC(=O)COCCOCCNC(=O)CC[C@H](NC(=O)CCCCCCCCCCCCCCCCC(=O)O)C(=O)O)C(N)=O` [Example 46, N^ε29 ([2-[2-[2-[[2-[2-[2-[[(4S)-5-hydroxy-4-[(18-hydroxy-18-oxooctadecanoyl)amino]-5-oxopentanoyl]amino]ethoxy]ethoxy]acetyl]amino]ethoxy]ethoxy]acetyl]) [Lys^17, Glu^21, Leu^27, Lys^29] Glucagon peptide amide] (H-HSQGTFTSDYSKYLDSKRAQEFVQWLLNK([AEEA-AEEA-γGlu-C18 diacid])-NH2; N-terminus assumed) had a concentration for a half-maximal effect (EC50) of 0.003 nM.

For `CC(C)C[C@H](NC(=O)[C@H](Cc1ccc(O)cc1)NC(=O)[C@H](CCCNC(=N)N)NC(=O)[C@H](CO)NC(=O)[C@H](Cc1ccc(O)cc1)NC(=O)[C@H](CC(=O)O)NC(=O)[C@H](CO)NC(=O)[C@@H](NC(=O)[C@H](Cc1ccccc1)NC(=O)[C@@H](NC(=O)CNC(=O)[C@H](CCC(N)=O)NC(=O)[C@H](CO)NC(=O)[C@@H](N)Cc1c[nH]cn1)[C@@H](C)O)[C@@H](C)O)C(=O)N[C@@H](CC(=O)O)C(=O)N[C@@H](CO)C(=O)N[C@@H](CCCNC(=N)N)C(=O)N[C@@H](CCCNC(=N)N)C(=O)N[C@@H](C)C(=O)N[C@@H](CCC(N)=O)C(=O)N[C@@H](CC(=O)O)C(=O)N[C@@H](Cc1ccccc1)C(=O)N[C@H](C(=O)N[C@@H](CCCCNC(=O)COCCOCCNC(=O)COCCOCCNC(=O)CC[C@H](NC(=O)CCCCCCCCCCCCCCCCC(=O)O)C(=O)O)C(=O)N[C@@H](Cc1c[nH]c2ccccc12)C(=O)N[C@@H](CC(C)C)C(=O)N[C@@H](CC(C)C)C(=O)N[C@@H](CC(N)=O)C(=O)N[C@H](C(=O)O)[C@@H](C)O)C(C)C` [Example 47] (H-HSQGTFTSDYSRYLDSRRAQDFVK([AEEA-AEEA-γGlu-C18 diacid])WLLNT-OH; N-terminus and C-terminus assumed), the 50% effective concentration (EC50) was 0.109 nM.

For the molecule `CC(C)C[C@H](NC(=O)[C@H](Cc1ccc(O)cc1)NC(=O)[C@H](CCCCN)NC(=O)[C@H](CO)NC(=O)[C@H](Cc1ccc(O)cc1)NC(=O)[C@H](CC(=O)O)NC(=O)[C@H](CO)NC(=O)[C@@H](NC(=O)[C@H](Cc1ccccc1)NC(=O)[C@@H](NC(=O)CNC(=O)[C@H](CCC(N)=O)NC(=O)[C@H](CO)NC(=O)[C@@H](N)Cc1c[nH]cn1)[C@@H](C)O)[C@@H](C)O)C(=O)N[C@@H](CC(=O)O)C(=O)N[C@@H](CO)C(=O)N[C@@H](CCCNC(=N)N)C(=O)N[C@@H](CCCNC(=N)N)C(=O)N[C@@H](C)C(=O)N[C@@H](CCC(N)=O)C(=O)N[C@@H](CCC(=O)O)C(=O)N[C@@H](Cc1ccccc1)C(=O)N[C@H](C(=O)N[C@@H](CCCCNC(=O)COCCOCCNC(=O)COCCOCCNC(=O)CC[C@H](NC(=O)CCCCCCCCCCCCCCCCC(=O)O)C(=O)O)C(=O)N[C@@H](Cc1c[nH]c2ccccc12)C(=O)N[C@@H](CC(C)C)C(=O)N[C@@H](CC(C)C)C(=O)N[C@@H](CC(N)=O)C(=O)N[C@H](C(=O)O)[C@@H](C)O)C(C)C` [Example 48], the midpoint of the response, the EC50, lay at 0.021 nM.

`CC(C)C[C@H](NC(=O)[C@H](Cc1ccc(O)cc1)NC(=O)[C@H](CCCCN)NC(=O)[C@H](CO)NC(=O)[C@H](Cc1ccc(O)cc1)NC(=O)[C@H](CC(=O)O)NC(=O)[C@H](CO)NC(=O)[C@@H](NC(=O)[C@H](Cc1ccccc1)NC(=O)[C@@H](NC(=O)CNC(=O)[C@H](CCC(N)=O)NC(=O)[C@H](CO)NC(=O)[C@@H](N)Cc1c[nH]cn1)[C@@H](C)O)[C@@H](C)O)C(=O)N[C@@H](CC(=O)O)C(=O)N[C@@H](CO)C(=O)N[C@@H](CCCNC(=N)N)C(=O)N[C@@H](CCC(N)=O)C(=O)N[C@@H](C)C(=O)N[C@@H](CCC(N)=O)C(=O)N[C@@H](CCC(=O)O)C(=O)N[C@@H](Cc1ccccc1)C(=O)N[C@H](C(=O)N[C@@H](CCCCNC(=O)COCCOCCNC(=O)COCCOCCNC(=O)CC[C@H](NC(=O)CCCCCCCCCCCCCCCCC(=O)O)C(=O)O)C(=O)N[C@@H](Cc1c[nH]c2ccccc12)C(=O)N[C@@H](CC(C)C)C(=O)N[C@@H](CC(C)C)C(=O)N[C@@H](CC(N)=O)C(=O)N[C@H](C(=O)O)[C@@H](C)O)C(C)C` [Example 49, N^ε24-([2-[2-[2-[[2-[2-[2-[[(4S)-5-hydroxy-4-[(18-hydroxy-18-oxooctadecanoyl)amino]-5-oxopentanoyl]amino]ethoxy]ethoxy]acetyl]amino]ethoxy]ethoxy]acetyl]) [Gln^18,Glu^21,Lys^24,Leu^27] Glucagon] (H-HSQGTFTSDYSKYLDSRQAQEFVK([AEEA-AEEA-γGlu-C18 diacid])WLLNT-OH; N-terminus and C-terminus assumed) had an EC50 of 0.15 nM.

As to `CC(C)C[C@H](NC(=O)[C@H](Cc1ccc(O)cc1)NC(=O)[C@H](CCCCN)NC(=O)[C@H](CO)NC(=O)[C@H](Cc1ccc(O)cc1)NC(=O)[C@H](CC(=O)O)NC(=O)[C@H](CO)NC(=O)[C@@H](NC(=O)[C@H](Cc1ccccc1)NC(=O)[C@@H](NC(=O)CNC(=O)[C@H](CCC(N)=O)NC(=O)[C@H](CO)NC(=O)[C@@H](N)Cc1c[nH]cn1)[C@@H](C)O)[C@@H](C)O)C(=O)N[C@@H](CC(=O)O)C(=O)N[C@@H](CO)C(=O)N[C@@H](CCCNC(=N)N)C(=O)N[C@@H](CCCNC(=N)N)C(=O)N[C@@H](C)C(=O)N[C@@H](CCC(N)=O)C(=O)N[C@@H](CC(=O)O)C(=O)N[C@@H](Cc1ccccc1)C(=O)N[C@H](C(=O)N[C@@H](CCCCNC(=O)COCCOCCNC(=O)COCCOCCNC(=O)CC[C@H](NC(=O)CCCCCCCCCCCCCCCCC(=O)O)C(=O)O)C(=O)N[C@@H](Cc1c[nH]cn1)C(=O)N[C@@H](CC(C)C)C(=O)N[C@@H](CC(C)C)C(=O)N[C@@H](CC(N)=O)C(=O)N[C@H](C(=O)O)[C@@H](C)O)C(C)C` [Example 50, N^ε24-([2-[2-[2-[[2-[2-[2-[[(4S)-5-hydroxy-4-[(18-hydroxy-18-oxooctadecanoyl)amino]-5-oxopentanoyl]amino]ethoxy]ethoxy]acetyl]amino]ethoxy]ethoxy]acetyl]) [Lys^24,His^25,Leu^27] Glucagon], the midpoint of the response, the EC50, lay at 0.194 nM.
